Reference: ChEMBL document CHEMBL5665440, “ASAP - In vitro liver microsomal stability” (2024)

Key:
[1] = (§1) Mouse liver microsomal stability of compound in microsomal protein, PBS buffer pH 7.4, NADPH, glucose-6-phosphate and glucose-6-phosphate dehydrogenase media. Aliquotes were taken at 5 time points and after stopping the reaction, supernatants were analyzed using HPLC coupled with a tandem mass spectrometer. The elimination constant, half-life, and intrinsic clearance are determined as results using linear regression analysis.; format: ADME, microsomes, Microsome
[2] = as §1, with “Human” for “Mouse”; format: ADME, microsomes, Microsome
Throughout, for Remaining (without cofactor): time not given here.
Throughout, for Remaining: time not given here.

half-life ([1]; liver microsomes): > 173 min
microsomal CLint ([1]; liver microsomes): < 10 µL/min/mg
Remaining ([1]; microsomes): 86.057%
Remaining (without cofactor) ([1]; microsomes): 94.216%
half-life ([2]; liver microsomes): > 173 min
microsomal CLint ([2]; liver microsomes): < 10 µL/min/mg
Remaining ([2]; microsomes): 86.755%
Remaining (without cofactor) ([2]; microsomes): 110.939%
SMILES: O=C(Nc1ccc2c(c1)CNC2)c1ccc2[nH]cc(C3CCNCC3)c2c1
